How the values were obtained:
Assay in all cases: KINOMEscan competition binding
Settings in all cases: compound 10.0 µM
RIPK2 (human) = RIPK2 (human) (UniProt O43353)
EPHB1 (human) = EPHB1 (human) (UniProt P54762)
NEK1 (human) = NEK1 (human) (UniProt Q96PY6)
RIPK1 (human) = RIPK1 (human) (UniProt Q13546)
CDC42BPB (human) = CDC42BPB (human) (UniProt Q9Y5S2)
TTK (human) = TTK (human) (UniProt P33981)
ADCK4 (human) = ADCK4 (human) (UniProt Q96D53)
PRKAA2 (human) = PRKAA2 (human) (UniProt P54646)
[1] = tested on: FLT3 (human), P36888 [ITD]
CSNK2A2 (human) = CSNK2A2 (human) (UniProt P19784)
PRKAA1 (human) = PRKAA1 (human) (UniProt Q13131)
ZAP70 (human) = ZAP70 (human) (UniProt P43403)
MYLK4 (human) = MYLK4 (human) (UniProt Q86YV6)
ERBB2 (human) = ERBB2 (human) (UniProt P04626)
MYO3A (human) = MYO3A (human) (UniProt Q8NEV4)
MAP3K7 (human) = MAP3K7 (human) (UniProt O43318)
PKMYT1 (human) = PKMYT1 (human) (UniProt Q99640)
EPHA1 (human) = EPHA1 (human) (UniProt P21709)
CDK17 (human) = CDK17 (human) (UniProt Q00537)
STK10 (human) = STK10 (human) (UniProt O94804)
FLT3 (human) = FLT3 (human) (UniProt P36888)
CDK3 (human) = CDK3 (human) (UniProt Q00526)
PKN2 (human) = PKN2 (human) (UniProt Q16513)
STK11 (human) = STK11 (human) (UniProt Q15831)
ACVRL1 (human) = ACVRL1 (human) (UniProt P37023)
CAMK2D (human) = CAMK2D (human) (UniProt Q13557)
PRKD2 (human) = PRKD2 (human) (UniProt Q9BZL6)
MAPKAPK5 (human) = MAPKAPK5 (human) (UniProt Q8IW41)
EPHA3 (human) = EPHA3 (human) (UniProt P29320)
[2] = tested on: EGFR (human), P00533 [747-751 del / S ins]
LYN (human) = LYN (human) (UniProt P07948)
[3] = molecular target: JAK2 JH1 catalytic (human) (UniProt O60674)
RPS6KA6 KD1 (human) = RPS6KA6 KD1 (human) (UniProt Q9UK32)
TLK2 (human) = TLK2 (human) (UniProt Q86UE8)
ADCK3 (human) = ADCK3 (human) (UniProt Q8NI60)
TXK (human) = TXK (human) (UniProt P42681)
SLK (human) = SLK (human) (UniProt Q9H2G2)
PDGFRA (human) = PDGFRA (human) (UniProt P16234)
CHUK (human) = CHUK (human) (UniProt O15111)
MYLK2 (human) = MYLK2 (human) (UniProt Q9H1R3)
PKN1 (human) = PKN1 (human) (UniProt Q16512)
TNIK (human) = TNIK (human) (UniProt Q9UKE5)

Sequence of CSNK2A2 (human) (P19784 whole entry, looked up): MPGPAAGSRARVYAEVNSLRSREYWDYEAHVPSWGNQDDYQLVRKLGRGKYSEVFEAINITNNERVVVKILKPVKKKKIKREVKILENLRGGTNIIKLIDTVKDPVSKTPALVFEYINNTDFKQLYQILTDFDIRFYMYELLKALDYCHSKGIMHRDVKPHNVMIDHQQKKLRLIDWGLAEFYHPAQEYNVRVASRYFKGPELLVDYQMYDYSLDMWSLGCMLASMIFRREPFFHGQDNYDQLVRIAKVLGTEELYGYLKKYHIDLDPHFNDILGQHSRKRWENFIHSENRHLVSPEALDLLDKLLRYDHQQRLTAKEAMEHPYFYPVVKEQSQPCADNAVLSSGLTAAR
Sequence of MAPKAPK5 (human) (Q8IW41 whole entry, looked up): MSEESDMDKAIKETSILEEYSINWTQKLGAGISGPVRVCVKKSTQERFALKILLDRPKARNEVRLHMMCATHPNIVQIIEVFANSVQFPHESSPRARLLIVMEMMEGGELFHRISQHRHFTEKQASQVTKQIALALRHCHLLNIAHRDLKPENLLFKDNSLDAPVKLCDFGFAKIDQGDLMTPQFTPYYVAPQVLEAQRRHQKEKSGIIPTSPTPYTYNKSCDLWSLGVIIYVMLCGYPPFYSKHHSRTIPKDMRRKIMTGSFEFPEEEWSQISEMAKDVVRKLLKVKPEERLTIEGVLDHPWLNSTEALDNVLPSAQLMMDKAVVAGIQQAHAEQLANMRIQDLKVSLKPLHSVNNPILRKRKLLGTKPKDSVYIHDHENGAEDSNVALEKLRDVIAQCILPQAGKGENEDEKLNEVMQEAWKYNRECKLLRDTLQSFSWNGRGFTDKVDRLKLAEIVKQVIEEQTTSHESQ
Sequence of MYLK2 (human) (Q9H1R3 whole entry, looked up): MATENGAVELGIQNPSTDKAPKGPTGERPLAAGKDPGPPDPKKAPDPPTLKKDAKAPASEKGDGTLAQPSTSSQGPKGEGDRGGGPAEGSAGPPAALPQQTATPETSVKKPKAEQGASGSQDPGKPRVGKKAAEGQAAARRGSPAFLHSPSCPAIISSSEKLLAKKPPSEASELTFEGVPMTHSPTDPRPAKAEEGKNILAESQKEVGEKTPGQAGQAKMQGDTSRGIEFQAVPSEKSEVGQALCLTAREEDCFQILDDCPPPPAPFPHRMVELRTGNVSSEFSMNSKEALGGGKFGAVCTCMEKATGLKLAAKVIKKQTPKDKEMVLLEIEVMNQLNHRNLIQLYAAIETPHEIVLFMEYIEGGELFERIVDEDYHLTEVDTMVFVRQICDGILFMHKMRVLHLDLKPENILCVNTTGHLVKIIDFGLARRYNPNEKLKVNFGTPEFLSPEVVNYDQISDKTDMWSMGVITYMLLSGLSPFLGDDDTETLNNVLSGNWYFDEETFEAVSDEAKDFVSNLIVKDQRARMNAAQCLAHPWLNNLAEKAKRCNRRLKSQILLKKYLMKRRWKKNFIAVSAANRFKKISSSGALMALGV
Sequence of ERBB2 (human) (P04626 whole entry, looked up): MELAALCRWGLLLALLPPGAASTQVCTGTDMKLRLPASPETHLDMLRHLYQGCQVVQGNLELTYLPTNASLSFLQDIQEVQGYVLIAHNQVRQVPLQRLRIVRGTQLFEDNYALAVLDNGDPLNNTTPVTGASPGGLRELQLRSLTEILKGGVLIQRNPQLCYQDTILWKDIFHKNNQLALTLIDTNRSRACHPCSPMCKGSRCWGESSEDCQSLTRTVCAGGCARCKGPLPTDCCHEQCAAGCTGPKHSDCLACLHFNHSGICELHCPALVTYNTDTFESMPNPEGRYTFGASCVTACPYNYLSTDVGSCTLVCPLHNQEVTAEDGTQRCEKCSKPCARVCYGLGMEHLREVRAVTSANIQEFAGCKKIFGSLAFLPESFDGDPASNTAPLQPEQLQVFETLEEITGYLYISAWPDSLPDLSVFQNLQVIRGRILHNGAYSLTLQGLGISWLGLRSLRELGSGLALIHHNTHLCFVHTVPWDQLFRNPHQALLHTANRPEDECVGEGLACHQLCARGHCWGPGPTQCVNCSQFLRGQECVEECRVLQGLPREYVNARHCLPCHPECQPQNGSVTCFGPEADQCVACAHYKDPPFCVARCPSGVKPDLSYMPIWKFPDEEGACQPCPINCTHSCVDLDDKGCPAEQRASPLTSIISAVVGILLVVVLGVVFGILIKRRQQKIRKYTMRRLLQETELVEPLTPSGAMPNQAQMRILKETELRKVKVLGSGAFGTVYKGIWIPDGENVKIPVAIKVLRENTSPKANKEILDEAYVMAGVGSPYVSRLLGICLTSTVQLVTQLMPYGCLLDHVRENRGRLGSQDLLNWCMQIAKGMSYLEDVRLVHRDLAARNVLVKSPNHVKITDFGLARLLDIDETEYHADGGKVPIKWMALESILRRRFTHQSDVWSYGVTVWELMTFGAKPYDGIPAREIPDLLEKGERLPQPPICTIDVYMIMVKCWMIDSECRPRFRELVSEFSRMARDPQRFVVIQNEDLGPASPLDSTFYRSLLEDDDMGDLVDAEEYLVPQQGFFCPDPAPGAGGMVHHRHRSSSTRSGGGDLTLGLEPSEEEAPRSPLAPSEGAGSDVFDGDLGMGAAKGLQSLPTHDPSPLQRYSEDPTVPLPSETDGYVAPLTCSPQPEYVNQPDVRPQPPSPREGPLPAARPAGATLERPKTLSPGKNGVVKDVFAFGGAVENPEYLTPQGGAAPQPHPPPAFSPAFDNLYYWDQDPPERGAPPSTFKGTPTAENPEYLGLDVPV
Sequence of ZAP70 (human) (P43403 whole entry, looked up): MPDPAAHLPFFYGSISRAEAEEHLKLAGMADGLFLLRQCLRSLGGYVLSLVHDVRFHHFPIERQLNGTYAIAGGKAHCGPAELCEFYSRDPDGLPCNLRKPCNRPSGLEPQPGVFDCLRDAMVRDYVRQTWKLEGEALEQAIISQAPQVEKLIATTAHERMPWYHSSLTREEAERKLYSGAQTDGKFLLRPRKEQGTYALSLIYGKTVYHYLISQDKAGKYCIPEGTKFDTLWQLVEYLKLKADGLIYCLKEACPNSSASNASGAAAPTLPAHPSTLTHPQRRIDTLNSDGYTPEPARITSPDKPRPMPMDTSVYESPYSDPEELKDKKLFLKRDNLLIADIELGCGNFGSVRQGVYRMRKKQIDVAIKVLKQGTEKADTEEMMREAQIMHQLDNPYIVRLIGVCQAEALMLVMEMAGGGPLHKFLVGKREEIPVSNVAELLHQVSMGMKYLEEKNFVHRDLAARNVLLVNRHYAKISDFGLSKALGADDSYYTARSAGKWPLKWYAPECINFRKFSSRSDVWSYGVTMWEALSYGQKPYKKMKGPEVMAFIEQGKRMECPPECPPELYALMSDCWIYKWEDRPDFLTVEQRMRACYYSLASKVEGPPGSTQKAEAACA
Sequence of ADCK4 (human) (Q96D53 whole entry, looked up): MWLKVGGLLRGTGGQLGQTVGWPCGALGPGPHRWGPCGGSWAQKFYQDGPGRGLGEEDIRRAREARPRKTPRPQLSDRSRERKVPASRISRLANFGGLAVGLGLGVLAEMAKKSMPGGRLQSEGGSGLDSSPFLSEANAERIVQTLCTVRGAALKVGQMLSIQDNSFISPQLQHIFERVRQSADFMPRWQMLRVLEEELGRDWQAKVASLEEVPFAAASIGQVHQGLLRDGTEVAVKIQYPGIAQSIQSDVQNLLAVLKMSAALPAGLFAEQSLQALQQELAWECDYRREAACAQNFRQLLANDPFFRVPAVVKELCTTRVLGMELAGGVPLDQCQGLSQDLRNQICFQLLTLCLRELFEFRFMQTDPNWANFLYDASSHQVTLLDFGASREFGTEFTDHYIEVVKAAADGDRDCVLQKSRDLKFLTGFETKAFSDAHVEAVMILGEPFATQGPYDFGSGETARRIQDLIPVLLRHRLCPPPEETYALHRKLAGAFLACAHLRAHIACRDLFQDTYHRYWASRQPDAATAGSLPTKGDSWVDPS
Sequence of LYN (human) (P07948 whole entry, looked up): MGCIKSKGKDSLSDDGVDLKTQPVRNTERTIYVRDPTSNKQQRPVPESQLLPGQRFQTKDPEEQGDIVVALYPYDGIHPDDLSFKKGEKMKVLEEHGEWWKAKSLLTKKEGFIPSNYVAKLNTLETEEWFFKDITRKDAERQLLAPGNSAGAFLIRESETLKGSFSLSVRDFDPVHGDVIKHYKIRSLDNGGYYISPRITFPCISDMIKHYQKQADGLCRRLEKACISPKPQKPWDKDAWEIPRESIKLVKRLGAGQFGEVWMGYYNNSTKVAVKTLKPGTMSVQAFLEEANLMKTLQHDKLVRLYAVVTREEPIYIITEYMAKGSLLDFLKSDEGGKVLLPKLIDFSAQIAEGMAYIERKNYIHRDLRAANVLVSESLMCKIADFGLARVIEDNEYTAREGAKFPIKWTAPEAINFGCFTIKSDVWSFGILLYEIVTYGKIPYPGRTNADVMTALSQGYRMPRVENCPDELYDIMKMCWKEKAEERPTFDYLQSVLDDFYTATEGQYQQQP
Sequence of ADCK3 (human) (Q8NI60 whole entry, looked up): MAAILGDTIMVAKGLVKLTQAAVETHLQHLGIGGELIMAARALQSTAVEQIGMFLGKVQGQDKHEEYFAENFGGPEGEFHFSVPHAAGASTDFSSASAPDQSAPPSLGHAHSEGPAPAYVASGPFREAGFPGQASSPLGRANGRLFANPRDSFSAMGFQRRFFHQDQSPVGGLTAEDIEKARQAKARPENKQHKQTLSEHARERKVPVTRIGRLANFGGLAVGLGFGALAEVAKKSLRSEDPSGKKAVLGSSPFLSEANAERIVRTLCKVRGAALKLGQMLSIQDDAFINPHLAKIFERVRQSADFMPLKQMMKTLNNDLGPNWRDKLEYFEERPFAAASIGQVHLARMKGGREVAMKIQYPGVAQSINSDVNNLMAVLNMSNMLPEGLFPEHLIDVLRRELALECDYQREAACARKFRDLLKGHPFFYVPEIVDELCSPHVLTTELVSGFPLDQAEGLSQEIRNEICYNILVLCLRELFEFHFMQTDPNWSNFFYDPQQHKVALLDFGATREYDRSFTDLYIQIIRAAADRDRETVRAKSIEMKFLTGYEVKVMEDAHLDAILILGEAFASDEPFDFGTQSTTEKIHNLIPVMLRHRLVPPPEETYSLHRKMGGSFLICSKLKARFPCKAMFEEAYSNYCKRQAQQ

CCOc1cc(N2CCC(N3CCCCC3)CC2)ccc1Nc1nc(Nc2ccccc2S(=O)(=O)C(C)C)c2cn[nH]c2n1
kinase still bound, per cent of control (RIPK2 (human)): 100%
kinase still bound, per cent of control (EPHB1 (human)): 100%
kinase still bound, per cent of control (NEK1 (human)): 100%
kinase still bound, per cent of control (RIPK1 (human)): 100%
kinase still bound, per cent of control (CDC42BPB (human)): 100%
kinase still bound, per cent of control (TTK (human)): 6.5%
kinase still bound, per cent of control (ADCK4 (human)): 29%
kinase still bound, per cent of control (PRKAA2 (human)): 100%
kinase still bound, per cent of control [1]: 100%
kinase still bound, per cent of control (CSNK2A2 (human)): 94%
kinase still bound, per cent of control (PRKAA1 (human)): 51%
kinase still bound, per cent of control (ZAP70 (human)): 32%
kinase still bound, per cent of control (MYLK4 (human)): 100%
kinase still bound, per cent of control (ERBB2 (human)): 37%
kinase still bound, per cent of control (MYO3A (human)): 38%
kinase still bound, per cent of control (MAP3K7 (human)): 59%
kinase still bound, per cent of control (PKMYT1 (human)): 69%
kinase still bound, per cent of control (EPHA1 (human)): 100%
kinase still bound, per cent of control (CDK17 (human)): 100%
kinase still bound, per cent of control (STK10 (human)): 100%
kinase still bound, per cent of control (FLT3 (human)): 100%
kinase still bound, per cent of control (CDK3 (human)): 85%
kinase still bound, per cent of control (PKN2 (human)): 100%
kinase still bound, per cent of control (STK11 (human)): 100%
kinase still bound, per cent of control (ACVRL1 (human)): 100%
kinase still bound, per cent of control (CAMK2D (human)): 34%
kinase still bound, per cent of control (PRKD2 (human)): 96%
kinase still bound, per cent of control (MAPKAPK5 (human)): 100%
kinase still bound, per cent of control (EPHA3 (human)): 100%
kinase still bound, per cent of control [2]: 19%
kinase still bound, per cent of control (LYN (human)): 100%
kinase still bound, per cent of control [3]: 50%
kinase still bound, per cent of control (RPS6KA6 KD1 (human)): 23%
kinase still bound, per cent of control (TLK2 (human)): 100%
kinase still bound, per cent of control (ADCK3 (human)): 84%
kinase still bound, per cent of control (TXK (human)): 100%
kinase still bound, per cent of control (SLK (human)): 14%
kinase still bound, per cent of control (PDGFRA (human)): 100%
kinase still bound, per cent of control (CHUK (human)): 100%
kinase still bound, per cent of control (MYLK2 (human)): 100%
kinase still bound, per cent of control (PKN1 (human)): 100%
kinase still bound, per cent of control (TNIK (human)): 87%
